The target in one assay is BTK (Homo sapiens (Human), UniProt Q06187). The assay can be described thus: In Vitro BTK Kinase Assay: Btk-PolyGAT-LS Assay. Format: biochemical. Conditions: BTK enzyme 0.25 nM, ATP 10 μM, polyGAT 100 nM, 30 minutes incubation, TRF readout; read-out: IC50. In short, it runs like this: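 Human BTK activity was measured with final 10 μM ATP and 100 nM polyGAT substrate in pH 7.5 Tris buffer with 10 mM MgCl2, DTT, Triton X-100 and casein.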

Assay [1] concerns CD69 expression on CD19+ B cells in human whole blood stimulated with anti-human IgD. The assay can be described thus: In Vitro whole blood CD69 Assay. Format: cell-based. Conditions: human heparinized whole blood, anti-human IgD stimulation overnight, percentage of CD19+ B cells expressing CD69, flow cytometry, read-out: IC50. (In general: Flow cytometry measures light scatter and fluorescence of single cells or particles in a stream.)

For orientation: IC50 means the concentration that gives 50% inhibition.

Like-named read-outs stand apart in the source and are kept apart here. Bounds are passed on as bounds.

Sequence of BTK (Q06187 whole entry): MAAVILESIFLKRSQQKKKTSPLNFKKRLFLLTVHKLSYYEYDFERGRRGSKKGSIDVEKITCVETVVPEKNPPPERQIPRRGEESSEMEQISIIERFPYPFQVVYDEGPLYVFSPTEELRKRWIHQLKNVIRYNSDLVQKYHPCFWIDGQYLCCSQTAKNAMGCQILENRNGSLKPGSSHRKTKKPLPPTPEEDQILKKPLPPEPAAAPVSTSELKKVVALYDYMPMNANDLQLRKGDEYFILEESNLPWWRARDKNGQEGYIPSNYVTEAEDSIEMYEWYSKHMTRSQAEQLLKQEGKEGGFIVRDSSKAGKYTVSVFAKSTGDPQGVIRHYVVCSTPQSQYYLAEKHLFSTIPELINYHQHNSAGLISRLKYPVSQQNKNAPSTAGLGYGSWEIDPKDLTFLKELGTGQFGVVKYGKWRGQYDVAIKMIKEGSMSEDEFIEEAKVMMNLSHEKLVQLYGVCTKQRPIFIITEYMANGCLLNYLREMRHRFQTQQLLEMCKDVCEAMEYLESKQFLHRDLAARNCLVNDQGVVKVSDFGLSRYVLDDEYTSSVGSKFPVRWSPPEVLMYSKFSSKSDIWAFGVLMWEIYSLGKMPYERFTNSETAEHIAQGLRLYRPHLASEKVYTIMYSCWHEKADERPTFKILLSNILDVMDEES

For `C=CC(=O)N(C)[C@H]1C[C@H](Oc2nc(-c3cnn(C)c3)cn3ncc(C)c23)C1` [Example 60, N-methyl-N-((trans)-3-((3-methyl-6-(1-methyl-1H-pyrazol-4-yl)pyrazolo[1,5-a]pyrazin-4-yl)oxy)cyclobutyl)acrylamide], the IC50 was less than 0.001 µM at BTK and greater than 10 µM in assay [1] (Homo sapiens, B-cell).
In the same order, the values of `C=CS(=O)(=O)N1CCC[C@@H](Oc2nc(-c3cnn(C)c3)cn3nccc23)C1` [Example 5, (R)-6-(1-methyl-1H-pyrazol-4-yl)-4-((1-(vinylsulfonyl)piperidin-3-yl)oxy)pyrazolo[1,5-a]pyrazine] are less than 0.001 µM and greater than 10 µM.
In the same order, the values of `C=CC(=O)NC12CCC(Oc3nc(-c4cnn(C)c4)cn4nccc34)(C1)C2` [Example 98, N-(4-((6-(1-methyl-1H-pyrazol-4-yl)pyrazolo[1,5-a]pyrazin-4-yl)oxy)bicyclo[2.1.1]hexan-1-yl)acrylamide] are less than 0.001 µM and 1 to 10 µM.
On the same counts, the results for `C=CC(=O)NC1CCCN(c2nc(-c3cnn(C)c3)cn3nccc23)C1` (centres unmarked) [Example 20, N-[1-[6-(1-methylpyrazol-4-yl)pyrazolo[1,5-a]pyrazin-4-yl]-3-piperidyl]prop-2-enamide] are 0.01 to 1 µM and greater than 10 µM.
As for `C=CC(=O)N1CC[C@@H]2[C@@H](Oc3nc(-c4cnn(C)c4)cn4nccc34)C(C)(C)[C@@H]21` [Example 169, 1-((1R,5S,6R)-7,7-dimethyl-6-((6-(1-methyl-1H-pyrazol-4-yl)pyrazolo[1,5-a]pyrazin-4-yl)oxy)-2-azabicyclo[3.2.0]heptan-2-yl)prop-2-en-1-one], the IC50 on BTK was 0.001 to 0.01 µM; in assay [1] (Homo sapiens, B-cell) it was 1 to 10 µM.
For `C=CC(=O)N(C)[C@H]1C[C@@](C)(Oc2nc(-c3cnn(C)c3)cn3ncc(F)c23)C1` [Example 211, N-((1s,3s)-3-((3-fluoro-6-(1-methyl-1H-pyrazol-4-yl)pyrazolo[1,5-a]pyrazin-4-yl)oxy)-3-methylcyclobutyl)-N-methylacrylamide], the IC50 on BTK was less than 0.001 µM; in assay [1] (Homo sapiens, B-cell) it was less than 1 µM.
On to `CC#CC(=O)N(C)[C@H]1CC[C@@H]2C[C@]2(Oc2nc(-c3cnn(C)c3)cn3nccc23)C1` (single isomer, unassigned) [Example 113], for which the IC50 was 0.001 to 0.01 µM at BTK and 1 to 10 µM in assay [1] (Homo sapiens, B-cell).
In the same order, the values of `C#CC(=O)N(C)C1CCCN(c2nc(-c3cnn(C)c3)cc3nccn23)C1` (centres unmarked) [Example 23, N-methyl-N-[1-[7-(1-methylpyrazol-4-yl)imidazo[1,2-c]pyrimidin-5-yl]-3-piperidyl]prop-2-ynamide] are 0.01 to 1 µM and greater than 10 µM.
As to `C#CC(=O)NCC1CCCN(c2nc(-c3cnn(C)c3)cn3nccc23)C1` (centres unmarked) [Example 25, N-((1-(6-(1-methyl-1H-pyrazol-4-yl)pyrazolo[1,5-a]pyrazin-4-yl)piperidin-3-yl)methyl)propiolamide], the IC50 is 0.001 to 0.01 µM at BTK and greater than 10 µM in assay [1] (Homo sapiens, B-cell).
On the same counts, the results for `C=CC(=O)N1C[C@H]2C[C@H](Oc3nc(-c4cnn(C)c4)cn4nccc34)C[C@H]2C1` [Example 174, 1-((3aR,5s,6aS)-5-((6-(1-methyl-1H-pyrazol-4-yl)pyrazolo[1,5-a]pyrazin-4-yl)oxy)hexahydrocyclopenta[c]pyrrol-2(1H)-yl)prop-2-en-1-one] are less than 0.001 µM and less than 1 µM.
In the same order, the values of `C=CC(=O)N(C)c1ccc(F)c(Oc2nc(-c3cnn(C)c3)cn3nccc23)c1` [Example 130, N-(4-fluoro-3-((6-(1-methyl-1H-pyrazol-4-yl)pyrazolo[1,5-a]pyrazin-4-yl)oxy)phenyl)-N-methylacrylamide] are 0.001 to 0.01 µM and 1 to 10 µM.
Regarding `CC#CC(=O)N(C)[C@H]1CCC[C@@H](Oc2nc(-c3cnn(C)c3)cn3nccc23)C1` [Example 177, N-methyl-N-((1S,3R)-3-((6-(1-methyl-1H-pyrazol-4-yl)pyrazolo[1,5-a]pyrazin-4-yl)oxy)cyclohexyl)but-2-ynamide], the IC50 at BTK was less than 0.001 µM; in assay [1] (Homo sapiens, B-cell), less than 1 µM.
On the same counts, the results for `CC#CC(=O)N(CC(F)F)[C@H]1C[C@@](C)(Oc2nc(-c3cnn(C)c3)cn3nccc23)C1` [Example 233, N-(2,2-difluoroethyl)-N-((1s,3s)-3-methyl-3-((6-(1-methyl-1H-pyrazol-4-yl)pyrazolo[1,5-a]pyrazin-4-yl)oxy)cyclobutyl)but-2-ynamide] are less than 0.001 µM and less than 1 µM.
On the same counts, the results for `C=CS(=O)(=O)N1CCC[C@H](COc2nc(-c3cnn(C)c3)cn3nccc23)C1` [Example 15, (S)-6-(1-methyl-1H-pyrazol-4-yl)-4-((1-(vinylsulfonyl)piperidin-3-yl)methoxy)pyrazolo[1,5-a]pyrazine] are 0.001 to 0.01 µM and 1 to 10 µM.
In the same order, the values of `C=CC(=O)N(C)CCOc1nc(-c2cnn(C)c2)cn2nccc12` [Example 183, N-methyl-N-(3-((6-(1-methyl-1H-pyrazol-4-yl)pyrazolo[1,5-a]pyrazin-4-yl)oxy)ethyl)acrylamide] are 0.001 to 0.01 µM and 1 to 10 µM.
For `C=CC(=O)N(CC(F)F)[C@H]1C[C@@](C)(Oc2nc(-c3cnn(C)c3)cn3nccc23)C1` [Example 226, N-(2,2-difluoroethyl)-N-((1s,3s)-3-methyl-3-((6-(1-methyl-1H-pyrazol-4-yl)pyrazolo[1,5-a]pyrazin-4-yl)oxy)cyclobutyl)acrylamide], the IC50 was less than 0.001 µM on BTK and less than 1 µM in assay [1] (Homo sapiens, B-cell).
In the same order, the values of `C=CS(=O)(=O)N1CCC[C@H](Oc2nc(-c3cnn(C)c3)cn3nccc23)C1` [Example 6, (S)-6-(1-methyl-1H-pyrazol-4-yl)-4-((1-(vinylsulfonyl)piperidin-3-yl)oxy)pyrazolo[1,5-a]pyrazine] are 0.01 to 1 µM and greater than 10 µM.
As to `C/C=C\S(=O)(=O)N1CC(Oc2nc(-c3cnn(C)c3)cn3nccc23)C1` [Example 10, (Z)-6-(1-methyl-1H-pyrazol-4-yl)-4-((1-(prop-1-en-1-ylsulfonyl)azetidin-3-yl)oxy)pyrazolo[1,5-a]pyrazine], the IC50 is 0.01 to 1 µM on BTK and greater than 10 µM in assay [1] (Homo sapiens, B-cell).
On the same counts, the results for `CC#CC(=O)N[C@H]1CC[C@@H](Oc2cc(-c3cnn(C)c3)cn3nccc23)C1` [Example 164, N-[(1S,3R)-3-[6-(1-methylpyrazol-4-yl)pyrazolo[1,5-a]pyridin-4-yl]oxycyclopentyl]but-2-ynamide] are 0.001 to 0.01 µM and 1 to 10 µM.
In the case of `C=CC(=O)N1CCC[C@@H](Oc2nc(-c3cnn(C)c3)cn3nc(N)cc23)CC1` [Example 67, 1-[(4R)-4-[2-amino-6-(1-methylpyrazol-4-yl)pyrazolo[1,5-a]pyrazin-4-yl]oxyazepan-1-yl]prop-2-en-1-one], the half-inhibitory concentration (IC50) on BTK was less than 0.001 µM; in assay [1] (Homo sapiens, B-cell), less than 1 µM.
On to `C[C@@H]1O[C@H]1C(=O)N[C@H]1CC[C@@H](Oc2nc(-c3cnn(C)c3)cn3nccc23)C1` (single isomer, unassigned) [Example 148], for which the IC50 is 0.001 to 0.01 µM at BTK and less than 1 µM in assay [1] (Homo sapiens, B-cell).
Regarding `C=CC(=O)N(C)[C@@H]1CC[C@H](Oc2nc(-c3cnn(C)c3)cn3ncc(-c4ccccc4)c23)C1` [Example 173, N-methyl-N-((1R,3S)-3-(6-(1-methylpyrazol-4-yl)-3-phenyl-pyrazolo[1,5-a]pyrazin-4-yl)oxycyclopentyl)prop-2-enamide], the IC50 at BTK fell in the range of 0.001 to 0.01 µM; in assay [1] (Homo sapiens, B-cell), 1 to 10 µM.
With `C#CC(=O)NCC1CCCCN1c1nc(-c2cnn(C)c2)cn2nccc12` (single isomer, unassigned) [Example 26 E1, N-[[1-[6-(1-methylpyrazol-4-yl)pyrazolo[1,5-a]pyrazin-4-yl]-2-piperidyl]methyl]prop-2-ynamide], the figures for the IC50 (at BTK; in assay [1] (listed as 26 E1)) were 0.01 to 1 µM and greater than 10 µM, respectively.
For `C=CC(=O)N1CC[C@@H]2[C@H]1C(C)(C)[C@H]2Oc1nc(-c2cnn(C)c2)cn2nccc12` [Example 170, 1-((1S,5R,6S)-7,7-dimethyl-6-((6-(1-methyl-1H-pyrazol-4-yl)pyrazolo[1,5-a]pyrazin-4-yl)oxy)-2-azabicyclo[3.2.0]heptan-2-yl)prop-2-en-1-one], the IC50 on BTK lay within 0.01 to 1 µM; in assay [1] (Homo sapiens, B-cell), 1 to 10 µM.
In the same order, the values of `C=CC(=O)N1CCC[C@H](COc2nc(-c3cnn(C)c3)cn3nccc23)C1` [Example 14, (S)-1-(3-(((6-(1-methyl-1H-pyrazol-4-yl)pyrazolo[1,5-a]pyrazin-4-yl)oxy)methyl)piperidin-1-yl)prop-2-en-1-one] are 0.001 to 0.01 µM and greater than 10 µM.
As to `Cn1cc(-c2cn3nccc3c(N3CCCC(NC(=O)/C=C/CCl)C3)n2)cn1` (centres unmarked) [Example 22, 4-chloro-N-[1-[6-(1-methylpyrazol-4-yl)pyrazolo[1,5-a]pyrazin-4-yl]-3-piperidyl]but-2-enamide], the concentration for half-maximal inhibition (IC50) was in the range of 0.001 to 0.01 µM on BTK and 1 to 10 µM in assay [1] (Homo sapiens, B-cell).
In the same order, the values of `C=CC(=O)N1CCC(C)(COc2nc(-c3cnn(C)c3)cn3nccc23)CC1` [Example 189, 1-(4-methyl-4-(((6-(1-methyl-1H-pyrazol-4-yl)pyrazolo[1,5-a]pyrazin-4-yl)oxy)methyl)piperidin-1-yl)prop-2-en-1-one] are 0.001 to 0.01 µM and 1 to 10 µM.
As for `C#CC(=O)N1CCC[C@@H](Oc2nc(-c3cnn(C)c3)cn3nccc23)C1` [Example 7, (R)-1-(3-((6-(1-methyl-1H-pyrazol-4-yl)pyrazolo[1,5-a]pyrazin-4-yl)oxy)piperidin-1-yl)prop-2-yn-1-one], the half-maximal inhibitory concentration (IC50) at BTK is less than 0.001 µM; in assay [1] (Homo sapiens, B-cell), 1 to 10 µM.

The values are drawn from patent publication US20240083900A1, “PYRAZOLO[1,5-A]PYRAZINE DERIVATIVES AS BTK INHIBITORS” (BIOGEN MA INC., priority 2020, published 2024).
